Test results taken from patent US10214531B2 (Institute for Drug Discovery, LLC, priority 2013, dated 2019).
Structures can show the parent of a compound that is named as a salt.

Molecular target: recombinant human AMCase (Homo sapiens, UniProt Q9BZP6)
Experiment: Human AMCase Activity Assay
Assay type: biochemical
Conditions: recombinant hAMCase, 4-methylumbelliferyl chitobioside substrate, citrate buffer pH 5.2, 37° C., 60 minutes; read-out: Activity (IC50 value key)
Procedure: Human AMCase Activity Assay
The assay was run in the 96-well plate format, each reaction in the total volume of 100 μl. 4-Methylumbelliferyl B-D-N,N′ diacetylchitobioside hydrate was used as a substrate for the enzyme. Upon hydrolysis by AMCase, the substrate releases 4-methylumbelliferyl (4MU), when ionized in basic pH, emits fluorescence of 460 nm.
Briefly, 40 μl of a substrate was added to each well, followed by 10 μl of compound dilution and 50 μl of hAMCase recombinant enzyme solution. The reaction was carried out in citrate buffer, pH 5.2, in the dark, at 37° C. for 60 minutes with shaking.

Sequence of recombinant human AMCase (Q9BZP6 22-476): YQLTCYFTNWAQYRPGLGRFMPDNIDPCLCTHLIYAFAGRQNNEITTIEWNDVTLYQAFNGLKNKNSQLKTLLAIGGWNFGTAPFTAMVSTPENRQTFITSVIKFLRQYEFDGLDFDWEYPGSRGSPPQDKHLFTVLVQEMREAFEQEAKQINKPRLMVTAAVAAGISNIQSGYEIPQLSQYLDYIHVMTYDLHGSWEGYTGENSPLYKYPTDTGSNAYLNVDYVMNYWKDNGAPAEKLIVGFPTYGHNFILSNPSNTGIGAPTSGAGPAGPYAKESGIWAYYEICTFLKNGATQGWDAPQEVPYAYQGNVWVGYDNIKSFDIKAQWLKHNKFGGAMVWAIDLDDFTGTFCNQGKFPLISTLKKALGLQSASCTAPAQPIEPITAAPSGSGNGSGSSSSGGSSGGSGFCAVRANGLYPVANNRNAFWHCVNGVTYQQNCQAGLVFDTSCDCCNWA

| IC50 [µM] | SMILES |
| --- | --- |
| < 0.1 | Nc1n[nH]c(N2CCC(NCCc3ccc(Cl)cc3)C(CCCO)C2)n1 (centres unmarked) [Example 251, 3-(1-(3-amino-1H-1,2,4-triazol-5-yl)-4-((4-chlorophenethyl)amino)piperidin-3-yl)propan-1-ol dihydrochloride] |
| > 100 | Nc1n[nH]c(N2CCC(NC(=O)Nc3cc(Cl)c(Cl)cc3Cl)CC2)n1 [Example 217, 1-(1-(3-amino-1H-1,2,4-triazol-5-yl)piperidin-4-yl)-3-(2,4,5-trichlorophenyl)urea] |
| 10 to 100 | CN(C)c1ccc(CCN(C)C2CCN(c3nc(N)n[nH]3)CC2)cc1 [Example 178, 1-(3-amino-1H-1,2,4-triazol-5-yl)-N-(4-(dimethylamino)phenethyl)-N-methylpiperidin-4-amine] |
| 0.1 to 1 | CCCC1CN(c2nc(N)n[nH]2)CCC1NCCc1ccc(Cl)cc1 (single isomer, unassigned) [Example 231, 1-(3-amino-1H-1,2,4-triazol-5-yl)-N-(4-chlorophenethyl)-3-propylpiperidin-4-amine] |
| < 0.1 | Nc1n[nH]c(N2CCC(N(CCc3ccc(Br)cc3)Cc3ccc(F)c4ccccc34)CC2)n1 [Example 167, 1-(3-amino-1H-1,2,4-triazol-5-yl)-N-(4-bromophenethyl)-N-((4-fluoronaphthalen-1-yl)methyl)piperidin-4-amine] |
| 10 to 100 | Nc1n[nH]c(N2CCN(CCCc3ccccc3)C(CCCO)C2)n1 (centres unmarked) [Example 226] |
| 1 to 10 | CN(CCc1ccc(Cl)cc1)C1CCN(c2nc(N)n[nH]2)CC1F (centres unmarked) [Example 249, 1-(3-amino-1H-1,2,4-triazol-5-yl)-N-(4-chlorophenethyl)-3-fluoro-N-methylpiperidin-4-amine] |
| 1 to 10 | CN(CCc1c(Cl)cccc1Cl)C1CCN(c2nc(N)n[nH]2)CC1 [Example 184, 1-(3-amino-1H-1,2,4-triazol-5-yl)-N-(2,6-dichlorophenethyl)-N-methylpiperidin-4-amine] |
| 10 to 100 | Nc1n[nH]c(N2CCC(N(CCc3ccc(Cl)cc3)CC(F)(F)F)CC2)n1 [Example 186, 1-(3-amino-1H-1,2,4-triazol-5-yl)-N-(4-chlorophenethyl)-N-(2,2,2-trifluoroethyl)piperidin-4-amine hydrochloride] |
| > 100 | CN(C1CCN(c2nc(N)n[nH]2)CC1)C1CCc2ccccc2C1 (centres unmarked) [Example 250, 1-(3-amino-1H-1,2,4-triazol-5-yl)-N-methyl-N-(1,2,3,4-tetrahydronaphthalen-2-yl)piperidin-4-amine dihydrochloride] |
| 0.1 to 1 | CN(CCc1ccc(Cl)cc1)C1(CCO)CCN(c2nc(N)n[nH]2)CC1 [Example 228, 2-(1-(3-amino-1H-1,2,4-triazol-5-yl)-4-((4-chlorophenethyl)(methyl)amino)piperidin-4-yl)ethanol] |

The next lines start with the compound.

| SMILES | IC50 [µM] |
| --- | --- |
| Nc1n[nH]c(N2CCC(N(CCc3ccc(Cl)cc3)Cc3ccccc3F)CC2)n1 [Example 137, 1-(3-amino-1H-1,2,4-triazol-5-yl)-N-(4-chlorophenethyl)-N-(2-fluorobenzyl)piperidin-4-amine dihydrochloride] | < 0.1 |
| Nc1n[nH]c(N2CCC(N(CCc3ccc(Cl)cc3)Cc3ccccc3-c3ccccc3)CC2)n1 [Example 114, N-([1,1′-biphenyl]-2-ylmethyl)-1-(3-amino-1H-1,2,4-triazol-5-yl)-N-(4-chlorophenethyl) piperidin-4-amine] | < 0.1 |
| CC1CN(c2nc(N)n[nH]2)CCN1CCOc1ccc(Br)cc1 (centres unmarked) [Example 26, 5-(4-(2-(4-bromophenoxy)ethyl)-3-methylpiperazin-1-yl)-1H-1,2,4-triazol-3-amine] | 1 to 10 |
| CCC(Oc1ccc(Br)cc1)C(=O)N1CCN(c2nc(N)n[nH]2)CC1 (centres unmarked) [Example 5, 1-[4-(3-amino-1H-1,2,4-triazol-5-yl)piperazin-1-yl]-2-(4-bromophenoxy)butan-1-one] | > 100 |
| Nc1n[nH]c(N2CCC(N(CCc3ccc(Cl)cc3)Cc3ccncc3F)CC2)n1 [Example 119, 1-(3-amino-1H-1,2,4-triazol-5-yl)-N-(4-chlorophenethyl)-N-((3-fluoropyridin-4-yl)methyl)piperidin-4-amine] | < 0.1 |
| C[C@@H](CN1CCN(c2nc(N)n[nH]2)CC1)Oc1ccc(Cl)cc1 [Example 65, (S)-5-(4-(2-(4-chlorophenoxy)propyl)piperazin-1-yl)-1H-1,2,4-triazol-3-amine] | 10 to 100 |
| Cc1ccccc1OC(C)C(=O)N1CCN(c2nc(N)n[nH]2)CC1 (centres unmarked) [Example 32, 1-(4-(3-amino-1H-1,2,4-triazol-5-yl)piperazin-1-yl)-2-(o-tolyloxy)propan-1-one] | > 100 |
| Nc1n[nH]c(N2CCC(N(CCc3ccc(Cl)cc3)Cc3ccc4ccccc4c3)CC2)n1 [Example 112, 1-(3-amino-1H-1,2,4-triazol-5-yl)-N-(4-chlorophenethyl)-N-(naphthalen-2-ylmethyl) piperidin-4-amine] | < 0.1 |
| Nc1n[nH]c(N2CCC(NCCc3ccc(Cl)cc3)CC2)n1 [Example 88, 1-(3-amino-1H-1,2,4-triazol-5-yl)-N-(4-chlorophenethyl)piperidin-4-amine] | 1 to 10 |
| CC(C)(C)CN(CCc1ccc(Cl)cc1)C1CCN(c2nc(N)n[nH]2)CC1 [Example 94, 1-(3-amino-1H-1,2,4-triazol-5-yl)-N-(4-chlorophenethyl)-N-neopentyl-piperidin-4-amine dihydrochloride] | < 0.1 |
| Nc1n[nH]c(N2CCC(N(CCc3ccc(Cl)cc3)Cc3ccc(C(F)(F)F)cc3)CC2)n1 [Example 104, 1-(3-amino-1H-1,2,4-triazol-5-yl)-N-(4-chlorophenethyl)-N-(4-(trifluoromethyl)benzyl)piperidin-4-amine] | < 0.1 |
| Nc1n[nH]c(N2CCC(NC(=O)Nc3ccc(F)c(F)c3)CC2)n1 [Example 68, 1-(1-(3-amino-1H-1,2,4-triazol-5-yl)piperidin-4-yl)-3-(3,4-difluorophenyl)urea] | > 100 |
| Cc1ccc(CN(CCc2ccc(Cl)cc2)C2CCN(c3nc(N)n[nH]3)CC2)cc1 [Example 102, 1-(3-amino-1H-1,2,4-triazol-5-yl)-N-(4-chlorophenethyl)-N-(4-methylbenzyl) piperidin-4-amine] | < 0.1 |
| Nc1n[nH]c(N2CCCN(CCOc3ccc(Br)cc3)CC2)n1 [Example 28, 5-{4-[2-(4-bromophenoxy)ethyl]-[1,4]-diazepan-1-yl}-1H-1,2,4-triazol-3-amine] | > 100 |
| Nc1n[nH]c(N2CCC(NCCc3ccc(Br)cc3)CC2)n1 [Example 22, 1-(3-amino-1H-1,2,4-triazol-5-yl)-N-(4-bromophenethyl)piperidin-4-amine] | 1 to 10 |
| Cc1cccc(OC(C)C(=O)N2CCN(c3nc(N)n[nH]3)CC2)c1 (centres unmarked) [Example 36, 1-(4-(3-amino-1H-1,2,4-triazol-5-yl)piperazin-1-yl)-2-(m-tolyloxy)propan-1-one] | > 100 |
| Nc1n[nH]c(N2CCN(C(=O)COc3ccccc3)CC2)n1 [Example 30, 1-(4-(3-amino-1H-1,2,4-triazol-5-yl)piperazin-1-yl)-2-phenoxyethanone] | > 100 |
| C[C@@H](CN1CCN(c2nc(N)n[nH]2)CC1)Oc1ccc(Br)cc1 [Example 62, (S)-5-(4-(2-(4-bromophenoxy)propyl)piperazin-1-yl)-1H-1,2,4-triazol-3-amine] | 0.1 to 1 |
